These results are taken from US9308282B2, “[F-18]-labelled L-glutamic acid and L-glutamine derivatives (I), their use and processes for their preparation” (PIRAMAL IMAGING SA, priority 2008, dated 2016).

For one assay, the system named is H460 tumour. As to the kind of experiment: PET with rats bearing H460 tumours. It counts as in vivo. The following applies: 80 min after i.v. 18 MBq, 20 min data acquisition.
The test system of assay [1] is A549 and H460 tumour cells. As to the kind of experiment: cell uptake of S-configured, F-18-labelled glutamic acid derivatives.
Excerpt: Following labelling with F-18, (2S,4S)-2-amino-4-(3-[F-18]fluoropropyl)pentanedioic acid was examined in cell experiments with A549 and H460 tumour cells (both human non-small-cell bronchial carcinoma cell lines).
A further assay concerns A549 tumour. As to the kind of experiment: PET/CT imaging in mice bearing A549 tumours. It is filed as in vivo. The following applies: 60 min after i.v. 10 MBq, 20 min data acquisition.

SMILES strings stand for the structures.

`N[C@@H](C[C@H](CCC[18F])C(=O)O)C(=O)O`: the “PET image analysis: uptake into the H460 tumour” value in the assay with H460 tumour was “high uptake”. Moreover, the “cellular uptake over time” value in assay [1] is “time-dependent cellular uptake”. Further, the “PET/CT image analysis: uptake into the A549 tumour” value in the assay with A549 tumour is “high uptake”.
